Test results reported in paper PMC6017444, “Effects of Lysozyme on the Activity of Ionic of Fluoroquinolone Species” (Molecules : A Journal of Synthetic Chemistry and Natural …, 2018).

Target: T1, lysozyme (Lyz) from chicken egg white (Gallus gallus, UniProt P00698)
T1 construct: native mature protein from egg white (signal peptide removed), 129 residues, four disulfides, commercial (Sigma-Aldrich), used without further purification
Experiment: quenching of ligand fluorescence by protein (excitation […] nm), Stern-Volmer, static
Conditions: pH 7.4, 298 K, 10 mM Trizma; zwitterionic species; KSV taken as binding constant

T1 sequence (P00698 19-147): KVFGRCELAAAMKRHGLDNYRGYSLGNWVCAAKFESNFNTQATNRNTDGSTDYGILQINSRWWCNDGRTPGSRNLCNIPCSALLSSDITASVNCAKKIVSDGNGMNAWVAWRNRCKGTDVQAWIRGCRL

## O=C(O)c1cn(C2CC2)c2cc(N3CCNCC3)c(F)cc2c1=O [Ciprofloxacin, 1-cyclopropyl-6-fluoro-4-oxo-7-(piperazin-1-yl)-1,4-dihydroquinoline-3-carboxylic acid]
  Stern-Volmer binding constant (KSV): (1.80 ± 0.01) × 10^4 L mol^-1

## C[C@H]1COc2c(N3CCN(C)CC3)c(F)cc3c(=O)c(C(=O)O)cn1c23 [Levofloxacin]
  Stern-Volmer binding constant (KSV): (0.27 ± 0.02) × 10^4 L mol^-1
